Data taken from PubChem BioAssay AID1224920 (Broad Institute, 2016).
Values joined by “and” are separate entries in the source; they are usually repeats but may differ in a detail not shown here. Equal entries are not always repeated.

System: Clostridium difficile clinical isolate growth, OD600, 24 h
Experiment: growth modulation of Clostridium difficile isolate – OD600, 9-point, retest, dose response (AID 1224920);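 also: inhibitors lower culture turbidity so OD600 falls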

SMILES	IC50
COc1ccc(C#Cc2ccc([C@@H]3[C@H](CO)N4CCCCN(C(=O)Nc5cccc(F)c5)C[C@@H]34)cc2)cc1	7.68 µM
O=C(Nc1ccc(F)cc1)N1CCCCN2[C@H](CO)[C@H](c3ccc(-c4cccc(F)c4)cc3)[C@H]2C1	70.3 µM
COc1ccccc1NC(=O)N1CCCCN2[C@@H](CO)[C@H](c3ccc(-c4cccc(C)c4)cc3)[C@@H]2C1	93.9 µM
Fc1cccc(CN2C[C@@H]3N[C@H](C2)C3c2ccc(-c3ccccc3)cc2)c1 (some centres undefined)	8.38 µM and 10.4 µM
O=C(Nc1ccc(C(F)(F)F)cc1)N1[C@@H]2CNC[C@H]1C2c1ccc(-c2ccc(F)cc2)cc1 (some centres undefined)	13.9 µM
Cc1ccc(-c2ccc([C@@H]3[C@H](CO)N4CCCCN(C(=O)Nc5cccc(F)c5)C[C@@H]34)cc2)cc1	6.52 µM
COc1ccc(S(=O)(=O)N2CCCCN3[C@H](CO)[C@H](c4ccc(C5=CCCCC5)cc4)[C@H]3C2)cc1	29.5 µM
Cc1cccc(S(=O)(=O)N2CCCCN3[C@H](CO)[C@H](c4ccc(C#CC5CC5)cc4)[C@H]3C2)c1	27.9 µM
Cc1ccccc1-c1ccc(C2[C@H]3CNC[C@@H]2N3S(=O)(=O)c2ccccc2C)cc1 (some centres undefined)	31.8 µM
Cc1ccccc1-c1ccc(C2[C@@H]3CN(S(=O)(=O)c4ccccc4C)C[C@H]2N3)cc1 (some centres undefined)	27.5 µM
Fc1ccccc1-c1ccc(C2[C@@H]3CN(Cc4ccccc4)C[C@H]2N3)cc1 (some centres undefined)	4.68 µM and 7.81 µM
OC[C@@H]1Nc2ccc(C#Cc3ccc(F)cc3)cc2[C@H]2NCC[C@@H]12	59.4 µM
COc1ccccc1NC(=O)N1CCCCN2[C@@H](CO)[C@@H](c3ccc(-c4cccc(C)c4)cc3)[C@@H]2C1	23.5 µM
COc1ccccc1C#Cc1ccc2c(c1)[C@H]1[C@H](CCN1C(=O)c1ccncc1)[C@H](CO)N2	63.5 µM
O=C(C[C@@H]1CC[C@H]2[C@@H](COC[C@@H](O)CN2C(=O)Nc2ccc(Cl)c(Cl)c2)O1)NC1CCC1	8 µM
Cc1ccccc1-c1ccc([C@H]2[C@H](CO)N3CCCCN(C(=O)Nc4cccc(F)c4)C[C@@H]23)cc1	29.1 µM
Cc1ccccc1-c1ccc([C@@H]2[C@H](CO)N3CCCCN(C(=O)Nc4cccc(F)c4)C[C@@H]23)cc1	14.7 µM

SMILES	IC50
OC[C@H]1Nc2ccc(-c3ccc(F)cc3)cc2[C@@H]2[C@H]1CCN2Cc1ccc(F)cc1	26.8 µM
Fc1cccc(CN2C[C@@H]3N[C@H](C2)C3c2ccc(/C=C/c3ccccc3)cc2)c1 (some centres undefined)	1.8 µM and 4.45 µM
Fc1ccc(-c2ccc(C3[C@@H]4CN(Cc5ccccc5)C[C@H]3N4)cc2)cc1 (some centres undefined)	5.92 µM and 31.9 µM
N#Cc1cccc(-c2ccc(C3[C@@H]4CN(C(=O)Nc5ccc(C(F)(F)F)cc5)C[C@H]3N4)cc2)c1 (some centres undefined)	11.8 µM and 7.72 µM
O=C(Nc1ccccc1)N1CCCCN2[C@@H](CO)[C@H](c3ccc(C#Cc4ccccc4)cc3)[C@@H]2C1	19.2 µM
COc1cccc(CN2[C@@H]3CNC[C@H]2C3c2ccc(-c3cccc(OC)c3)cc2)c1 (some centres undefined)	13.3 µM
COc1ccc(NC(=O)N2CCCCN3[C@H](CO)[C@H](c4ccc(C#Cc5ccccc5)cc4)[C@H]3C2)cc1	27.5 µM
Cc1ccc(S(=O)(=O)N2C[C@@H]3N[C@H](C2)C3c2ccc(/C=C/c3ccccc3)cc2)cc1 (some centres undefined)	4.98 µM
O=C(c1ccc(F)cc1)N1C[C@@H]2N[C@H](C1)C2c1ccc(/C=C/c2ccccc2)cc1 (some centres undefined)	13 µM
COc1ccccc1CN1CC[C@@H]2[C@H]1c1cc(C#Cc3ccccc3)ccc1N[C@@H]2CO	26.2 µM
COc1ccccc1CN1C[C@@H]2N[C@H](C1)C2c1ccc(-c2ccccc2)cc1 (some centres undefined)	13.3 µM
Cc1ccccc1-c1ccc(C2[C@@H]3CN(S(=O)(=O)c4ccccc4)C[C@H]2N3)cc1 (some centres undefined)	56.1 µM
COc1ccc(-c2ccc(C3[C@H]4CNC[C@@H]3N4Cc3ccc4c(c3)OCO4)cc2)cc1 (some centres undefined)	53.1 µM
COc1cccc(-c2ccc(C3[C@@H]4CN(Cc5ccccn5)C[C@H]3N4)cc2)c1 (some centres undefined)	91.5 µM
Cc1cccc(-c2ccc(C3[C@@H]4CN(Cc5ccccc5)C[C@H]3N4)cc2)c1 (some centres undefined)	17.1 µM
CCNC(=O)C[C@H]1CC[C@@H]2[C@H](COC[C@H](O)CN2C(=O)Nc2ccc(C(F)(F)F)cc2)O1	9.45 µM
O=C(C[C@H]1CC[C@@H]2[C@H](COC[C@H](O)CN2C(=O)Nc2ccc(Cl)c(Cl)c2)O1)NC1CCC1	8.25 µM
